This is an account of results in patent publication US7109236B2, “Analogs of green tea polyphenols as chemotherapeutic and chemopreventive agents” (SRI International, priority 2002, dated 2006).

The test system of one data set is MCF-7 (ER+). The data set can be described thus: MTT growth inhibition assay, MCF-7 breast cancer cells. The class given is cell-based. The method, then:
(§1) Compounds of the invention were tested for their ability to inhibit growth in two breast cancer cell lines, MCF-7 (ER+) and MDA-MB-231 (ER−).
(§2) The growth inhibition assays were conducted using routine methods. Briefly, the cells were seeded in 24-well plates at a density of 2000 cells per well in 200 μL of […] growth medium. To each well was added 10 μL of DMSO containing the dissolved test compound; final DMSO concentration in each well was not more than 0.5%. Each test compound was assayed at concentrations of 0.4, 2, 10, and 50 μM. The plates were incubated for eight days, with the media and test solutions replaced every third day. On Day 8, the viable cells were measured by the MTT assay, as described in Mosmann et al. (1983), “Rapid Colorimetric Assay for Cellular Growth and Survival: Application to Proliferation and Cytotoxicity,” J. Immunol. Method. 65:55–63. The optical density at 575 nm of each test well was measured and compared to that for control wells, and the data used to calculate the percentage of growth inhibition at different concentrations. The IC50 value (the concentration of growth inhibitor that results in 50% growth inhibition of the cells in culture relative to control cells not exposed to any growth inhibitor) was determined by plotting dose-response curves.
(§3) The calculated IC50 values are set forth in Table 1, with the results representing the average of at least two experiments conducted for each compound at each of the four concentrations.
(§4) The foregoing procedures were repeated with additional compounds of the invention to evaluate the their ability to inhibit growth in MCF-7 (ER+) and MDA-MB-231 (ER−).

The next data set deals with MDA-MB-231 (ER−). The data set can be described thus: MTT growth inhibition assay, MDA-MB-231 breast cancer cells. In kind it is cell-based. How it is done: as §1, §2, §3, §4
For orientation: Tetrazolium dyes change colour on reduction, which living cells bring about.

The subject of data set [1] is human lung tumor cells (A427). The data set is described as follows: Anchorage-independent growth inhibition assay (colony formation in soft agar). The class given is cell-based. Conditions: for Expected Colonies: A427 cells, (cells plated)(Surviving Fraction)(Frequency). How it is done: (§5) An anchorage-independent growth inhibition assay was performed as described in Korytynski, et al. (1996) “The development of an anchorage-independence assay using human lung tumor cells to screen potential chemopreventive agents,” Anticancer Res. 16, 1091–1094; and Sharma, et al. (1997) “The anchorage-independent assay as a screening tool to identify potential chemopreventive agents,” Methods Cell Sci. 19, 9–12. The assay measures the inhibition of colony formation of human lung tumor cells (A427) cells grown in soft agar. In this assay, A427 cells were grown in the presence of the test agent, SR 13196, EGCG or 13-cis-RA Control samples were tested using an equivalent volume of DMSO alone. A concurrent assay for cell survival was also performed.
(§6) Thus, SR 13196 inhibits colony formation of A427 cells in vitro, as well as their survival, and in a dose-dependent manner.

The next data set in a line: in vitro. Conditions: human, Caco-2, pH 7.4. The text has this:
(§7) The Caco-2 human colon adenocarcinoma cell line has become accepted as a predictive model for human intestinal absorption. […] The transport is reported as a permeability coefficient, P(app), which is compared to those of the known standards.

For the next data set, the system named is MCF-7 cells. The data set can be described thus: Cell cycle studies in MCF-7 cells. The class given is cell-based. The conditions noted are these: 10 μM. The text has this: To establish that the analogs of EGCG also act via the same mechanisms as EGCG itself, the active analog SR 13196 in cell cycle studies in MCF-7 cells was examined.
The subject of a further data set is A427 cells. The data set can be described thus: Concurrent assay for cell survival. In kind it is cell-based, human. Conditions: highest concentration tested (25 μM). The method, then:
as §5, §6

For data set [2] the following is noted: standards of known oral bioavailability; cited from earlier work.
Data set [3] has as its system Caco-2 human colon adenocarcinoma cell line. The data set can be described thus: Caco-2 intestinal permeability model. Conditions: for Papp: Caco-2, pH 7.4.
Source text: as §7
In general terms: Caco-2 monolayers are a common model of the intestinal barrier.

Where [4] appears, read: Homo sapiens, MCF7, 192 h, Table 1, 8 days.
Where [5] appears, read: Homo sapiens, MDA-MB-231, 192 h, Table 1, 8 days.
Where [6] appears, read: Table 2 (repeat run with additional compounds), 8 days.
Setting [7] is: Homo sapiens, MCF7, 192 h, Table 2 (repeat run with additional compounds), 8 days.
Setting [8] is: Homo sapiens, MDA-MB-231, 192 h, Table 2 (repeat run with additional compounds), 8 days.

For orientation: IC50 means the concentration that inhibits the measured activity by half. A high value points to weaker potency in that assay. The term inhibition denotes the relative decrease from the control value, in per cent. Usually Papp stands for the rate of passage across a membrane or cell layer, normalised by area and donor concentration. High values mean fast passage, low ones slow passage.

`COc1cc([C@H]2Oc3cc(O)cc(O)c3C[C@H]2OC(=O)c2cc(C)c(O)c(C)c2)cc(OC)c1OC` (relative stereo) [SR 13196]: the IC50 was 8.39 µM in the data set on MCF-7 (ER+) (setting [4]) and 19.6 µM in the data set with MDA-MB-231 (ER−) (setting [5]). For the same compound, the “inhibition of colony formation, in words” value in data set [1] (A427 cells in soft agar) is reported as “inhibited colony formation to a much greater extent than either EGCG or 13-cis-RA”. Besides, the “Expected Colonies” value in data set [1] (1.56 μM) is given as 277; in data set [1] (3.12 μM), 160; in data set [1] (6.25 μM) it was 67; in data set [1] (12.5 μM) it was 52. This compound showed an inhibition at 1.56 µM in data set [1] (Homo sapiens, A-427, A427 cells in soft agar, 1.56 μM) of 4%. Further, the inhibition at 3.12 µM in data set [1] (Homo sapiens, A-427, A427 cells in soft agar, 3.12 μM) is 32%. Besides, in data set [1] (Homo sapiens, A-427, A427 cells in soft agar, 6.25 μM), the inhibition at 6.25 µM is 43%. Further, the inhibition at 12.5 µM in data set [1] (Homo sapiens, A-427, A427 cells in soft agar, 12.5 μM) amounted to 46%. Also, the inhibition at 25 µM in data set [1] (Homo sapiens, A-427, A427 cells in soft agar, 25 μM) stood at 81%. The compound further came in with a Papp at 100 μM in “in vitro” of 6.82 ± 0.83 ×10⁻⁶ cm/s. Besides, the “effect on cell cycle” value with MCF-7 cells was “arrests the cell cycle in G1”.
In the data set with A427 cells, `CC1=C(/C=C/C(C)=C/C=C/C(C)=C\C(=O)O)C(C)(C)CCC1` [Compound 13-cis-RA, reference compound] returned a surviving cells of 68%. Moreover, the “Expected Colonies” value in data set [1] (1.56 μM) came to 332; in data set [1] (3.12 μM) it was 320; in data set [1] (6.25 μM) it was 289; in data set [1] (12.5 μM), 265; in data set [1] (25 μM), 254.
For the compound `CN1C(=O)CN=C(c2ccccc2)c2cc(Cl)ccc21` [Diazepam, diazepam], in data set [2], the “% Absorbed (literature value)” value was 100%.
Turning to `O=C(O[C@@H]1Cc2c(O)cc(O)cc2O[C@@H]1c1cc(O)c(O)c(O)c1)c1cc(O)c(O)c(O)c1` [EGCG, (−)-epigallocatechin-3-gallate, reference compound], the IC50 worked out at 37.1 µM in the data set on MCF-7 (ER+) (setting [6]) and 36.9 µM with MDA-MB-231 (ER−) (setting [6]). Further, the “Expected Colonies” value in data set [1] (1.56 μM) was determined as 386; in data set [1] (3.12 μM), 382; in data set [1] (6.25 μM), 378; in data set [1] (12.5 μM), 331; in data set [1] (25 μM), 191. For the same compound, in data set [3] (Caco-2 model, summary of the experiments), the “permeability coefficient (Papp), in words” value is “low permeability coefficient”. Besides, the “effect on cell cycle” value in the data set with MCF-7 cells is given as “arrests the cell cycle in G1”.
For the compound `Nc1nc(O)c2ncn(COC(CO)CO)c2n1` [Ganciclovir, ganciclovir], in data set [2], the “% Absorbed (literature value)” value is 3%.
For `COc1cc(C2Oc3cc(O)cc(O)c3C[C@H]2OC(=O)c2cc(O)c(O)c(O)c2)cc(OC)c1OC` (stereo partly drawn) [SR 13194, trans-5,7-DIHYDROXY-2-(3,4,5-TRIMETHOXY-PHENYL)-3,4-DIHYDRO-2H-CHROMAN-3-YL, 3,4,5-TRIHYDROXY-BENZOIC ACID ESTER], the IC50 in the data set on MCF-7 (ER+) (setting [4]) and in the data set with MDA-MB-231 (ER−) (setting [5]) was greater than 100 µM throughout.
For `COc1cc([C@H]2Oc3cc(O)cc(O)c3C[C@H]2OC(=O)c2cc(O)c(O)c(O)c2)cc(OC)c1OC` [SR 13195, cis-5,7-DIHYDROXY-2-(3,4,5-TRIMETHOXY-PHENYL)-3,4-DIHYDRO-2H-CHROMAN-3-YL, 3,4,5-TRIHYDROXY-BENZOIC ACID ESTER], the IC50 in the data set with MCF-7 (ER+) (setting [4]) and in the data set with MDA-MB-231 (ER−) (setting [5]) was greater than 100 µM each time.
On to `COc1cc(OC)c2c(c1)OC(c1cc(O)c(O)c(O)c1)[C@H](OC(=O)c1cc(O)c(O)c(O)c1)C2` (stereo partly drawn) [SR 13198, trans-5,7-DIMETHOXY-2-(3,4,5-TRIHYDROXY-PHENYL)-3,4-DIHYDRO-2H-CHROMAN-3-YL, 3,4,5-TRIHYDROXY-BENZOIC ACID ESTER], for which the results for the IC50 in the data set on MCF-7 (ER+) (setting [7]) and in the data set with MDA-MB-231 (ER−) (setting [8]) were 42.1 µM and 35.9 µM, respectively.
As for `COc1cc(OC)c2c(c1)O[C@H](c1cc(O)c(O)c(O)c1)[C@H](OC(=O)c1cc(C)c(O)c(C)c1)C2` [SR 13200], the IC50 in the data set with MCF-7 (ER+) (setting [7]) was 22.9 µM; in the data set on MDA-MB-231 (ER−) (setting [8]) it was 22.6 µM.
With `Cc1cc(C)c2c(c1)OC(c1cc(O)c(O)c(O)c1)[C@H](OC(=O)c1cc(O)c(O)c(O)c1)C2` (stereo partly drawn) [SR 13911], the values for the IC50 with MCF-7 (ER+) (setting [7]) and with MDA-MB-231 (ER−) (setting [8]) were 23.6 µM and 25.7 µM, respectively. In addition, the Papp at 100 μM in the data set “in vitro” amounted to 1.42 ± 1.6 ×10⁻⁶ cm/s.
Regarding `Cc1cc(C)c2c(c1)O[C@H](c1cc(O)c(O)c(O)c1)[C@H](OC(=O)c1cc(O)c(O)c(O)c1)C2` [SR 13912], the IC50 was 21.8 µM in the data set with MCF-7 (ER+) (setting [7]) and 53.7 µM with MDA-MB-231 (ER−) (setting [8]).
For `Cc1cc(C)c2c(c1)O[C@H](c1cc(O)c(O)c(O)c1)[C@H](OC(=O)c1cc(C)c(O)c(C)c1)C2` [SR 13913], the IC50 in the data set with MCF-7 (ER+) (setting [7]) is 17.2 µM. The compound also had a Papp at 100 μM in “in vitro” of less than 0.06 ×10⁻⁶ cm/s.
As for `COc1cc([C@H]2Oc3cc(O)cc(O)c3C[C@H]2OC(=O)c2cc(O)c(O)c(O)c2)cc(OC)c1O` [SR 13915], the IC50 in the data set on MCF-7 (ER+) (setting [6]) and with MDA-MB-231 (ER−) (setting [6]) was greater than 100 µM each time. The Papp in data set [3] was found to be 5.17 ± 0.49 ×10⁻⁶ cm/s.
Turning to `Cc1cc(C(=O)O[C@@H]2Cc3c(O)cc(O)cc3O[C@@H]2c2cc(C)c(O)c(C)c2)cc(C)c1O` [SR 13916], the values for the IC50 in the data set on MCF-7 (ER+) (setting [6]) and in the data set on MDA-MB-231 (ER−) (setting [6]) were 6.61 µM and 10.2 µM, respectively.
In the same order, the values of `Cc1cc([C@H]2Oc3cc(O)cc(O)c3CC2OC(=O)c2cc(O)c(O)c(O)c2)cc(C)c1O` (stereo partly drawn) [SR 13917] are 6.12 µM and 2.98 µM.
The corresponding values for `Cc1cc([C@H]2Oc3cc(O)cc(O)c3C[C@H]2OC(=O)c2cc(O)c(O)c(O)c2)cc(C)c1O` [SR 13918] are greater than 100 µM and 46.8 µM.
Regarding `COc1cc(C(=O)O[C@@H]2Cc3c(C)cc(C)cc3O[C@@H]2c2cc(O)c(O)c(O)c2)cc(OC)c1OC` [SR 13919], the IC50 is 8.35 µM with MCF-7 (ER+) (setting [6]) and 7.76 µM with MDA-MB-231 (ER−) (setting [6]). The Papp in data set [3] is less than 0.06 ×10⁻⁶ cm/s.
Take `COc1cc([C@H]2Oc3cc(O)cc(O)c3C[C@H]2OC(=O)c2cc(C)c(O)c(C)c2)cc(OC)c1O` [SR 13920]: the values for the IC50 in the data set with MCF-7 (ER+) (setting [6]) and with MDA-MB-231 (ER−) (setting [6]) were 33.1 µM and 9.97 µM, respectively.
